# Measured values published in patent publication US20230340491A1, “COMPOSITIONS AND METHODS FOR TREATING METABOLIC AND CARDIOVASCULAR DISEASES” (UNIVERSITY OF ROCHESTER, priority 2020, published 2023).
# What was measured:
# [1] = tested on: C57BL/6NJ mice fed NASH diet; experiment: NASH diet-induced NASH in C57BL/6NJ mice treated with PKD3 inhibitor; assay type: in vivo, mouse
# Description: The NASH diet D09100310, purchased from Research Diet, is a rodent diet with 40 kcal % Fat (mostly palm oil), 20 kcal % fructose and 2% cholesterol.
# Furtherly, to investigate the therapeutic potential of PKD3 inhibitor against NASH, we devised an experimental approach to model advanced NAFLD. […] To explore potential mechanisms by which PKD3 inhibitor treatment protect against diet-induced NASH. We applied RNA sequencing of livers collected at endpoint.
# HFD-fed C57BL/6J mice = experiment: HFD-induced obesity and NAFLD in C57BL/6J mice treated with CRT0066101; assay type: in vivo, mouse; details: 10 mg/kg/day oral
# Description: The mouse fat and liver tissues from the experimental mice were harvested after oral administration one and a half month.
# [2] = 100 ug/10 g per day oral, 6 weeks
# [3] = 100 ug/10 g per day oral, vs vehicle
# Description for WD-fed ApoE-/- mice: To further test whether PKD3 inhibitor prevents NAFLD development, we first studied ApoE^−/− mice with Western diet (WD) induced HS, after 8 weeks on WD, we then treat the mice with PKD3 inhibitor by oral administration (low dose; 100 ug/10 g per day) on continue fed WD condition.
structure (smiles),measurement,setting,value
CC[C@@H](N)CNc1ccnc(-c2cc(-c3cnn(C)c3)ccc2O)n1 [CRT0066101],BAT size and weight (FIG. 5I-5K),[1]; [2],reduction
same,NAS (FIG. 5G),[1]; [2],significantly decreased
same,gFAT size and weight (FIG. 5I-5K),[1]; [2],reduction
same,hepatic fibrosis (FIG. 5G),[1]; [2],significantly decreased
same,hepatomegaly induced by NASH diet,[1]; [2],markedly attenuated
same,iFAT size and weight (FIG. 5I-5K),[1]; [2],reduction
same,liver fat (FIG. 5G),[1]; [2],significantly decreased
same,liver size (FIG. 5E-5F),[1]; [2],dramatically decreased
same,liver surface (FIG. 5E),[1]; [2],more smooth
same,liver weight (FIG. 5F),[1]; [2],dramatically decreased
same,nonfasting glucose (FIG. 5H),[1]; [2],most potent glucose-lowering effect
same,body weight at endpoint (FIG. 5C-5D),"[1]; 100 ug/10 g per day oral, 6 weeks, vs vehicle",reduced
same,body weight curve (FIG. 5B),"[1]; 12 weeks NASH diet, then 100 ug/10 g per day oral for 6 weeks on NASH diet, vs H2O",decreased
same,body weight at end-point (FIG. 2C-2D),"HFD-fed C57BL/6J mice; one and a half month, vs vehicle",dramatically decreased
same,liver weight (FIG. 2F),HFD-fed C57BL/6J mice; vs vehicle,significantly reduced
same,running distance of physical exercise on treadmill (FIG. 2J),HFD-fed C57BL/6J mice; vs vehicle,increased
same,serum alanine-aminotransferase (ALT) (FIG. 2I),HFD-fed C57BL/6J mice; vs vehicle,decreased
same,serum aspartate aminotransferase (AST) (FIG. 2H),HFD-fed C57BL/6J mice; vs vehicle,decreased
same,size of adipocytes (FIG. 2K),HFD-fed C57BL/6J mice; vs vehicle,considerably diminished
same,weight of fat tissue (FIG. 2L-2N),HFD-fed C57BL/6J mice; vs vehicle,considerably diminished
same,liver histology (FIG. 2G),"HFD-fed C57BL/6J mice; vehicle mice had ballooning, hepatocyte death, severe fibrosis, fatty liver","almost normal liver morphology, little hepatic ballooning and fibrosis as well as lipid deposits"
same,fast blood glucose (FIG. 2R),HFD-fed C57BL/6J mice; HFD-fed mice,decreased
same,"glucose tolerance, OGTT (FIG. 2P)",HFD-fed C57BL/6J mice; HFD-fed mice,improved
same,"insulin sensitivity, ITT (FIG. 2O)",HFD-fed C57BL/6J mice; HFD-fed mice,improved
same,non-fast blood glucose (FIG. 2Q),HFD-fed C57BL/6J mice; HFD-fed mice,decreased
same,body fat (FIG. 3H-3K),WD-fed ApoE-/- mice; [3],radically reduced
same,body weight at end-point (FIG. 3B),WD-fed ApoE-/- mice; [3],decreased
same,liver weight (FIG. 3E),WD-fed ApoE-/- mice; [3],decreased
same,fibrosis score (FIG. 3F),"WD-fed ApoE-/- mice; H&E, Sirius Red, Oil Red O staining",alleviated
same,BAT (FIG. 3H-3K),WD-fed ApoE-/- mice; treat vs non-treat mice,no changes
same,GFAT (FIG. 3H-3K),WD-fed ApoE-/- mice; treat vs non-treat mice,no changes
same,"hyperlipidemia, serum (FIG. 3G)",WD-fed ApoE-/- mice; two months treatment,decreased
same,liver coloration (FIG. 3D),WD-fed ApoE-/- mice; yellowish coloration in vehicle mice,not any yellow color
